Data as given in patent publication US9120749B2, “Quinoline derivatives and MELK inhibitors containing the same” (ONCOTHERAPY SCIENCE, INC., priority 2010, dated 2015).
Where a name gives a salt, the structure may show the parent alone. Read-outs that look alike come from different tables or passages of the source.

What was measured:
T47D cells = test: Cell-based assay: anti-proliferative activity, Cell Counting Kit-8, 72 hours (T47D)
Summary of the method: (§1)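 T47D, A549 and BT-549 cells, with MELK-negative HT-1197 as control (MELK status checked by western blot), seeded at 2,000–3,000 cells/well. Growth measured by CCK-8 72 hours after inhibitor exposure; IC50 values calculated.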

MELK = MELK (Homo sapiens, UniProt Q14680); test: Kinase assay: MELK activity, phosphorylation of FITC-labeled histone H3 peptide measured by IMAP fluorescence polarization; assay type: biochemical; conditions: read-out: IC50 (μM) (kinase assay)
Chain of MELK (Q14680 whole entry, looked up): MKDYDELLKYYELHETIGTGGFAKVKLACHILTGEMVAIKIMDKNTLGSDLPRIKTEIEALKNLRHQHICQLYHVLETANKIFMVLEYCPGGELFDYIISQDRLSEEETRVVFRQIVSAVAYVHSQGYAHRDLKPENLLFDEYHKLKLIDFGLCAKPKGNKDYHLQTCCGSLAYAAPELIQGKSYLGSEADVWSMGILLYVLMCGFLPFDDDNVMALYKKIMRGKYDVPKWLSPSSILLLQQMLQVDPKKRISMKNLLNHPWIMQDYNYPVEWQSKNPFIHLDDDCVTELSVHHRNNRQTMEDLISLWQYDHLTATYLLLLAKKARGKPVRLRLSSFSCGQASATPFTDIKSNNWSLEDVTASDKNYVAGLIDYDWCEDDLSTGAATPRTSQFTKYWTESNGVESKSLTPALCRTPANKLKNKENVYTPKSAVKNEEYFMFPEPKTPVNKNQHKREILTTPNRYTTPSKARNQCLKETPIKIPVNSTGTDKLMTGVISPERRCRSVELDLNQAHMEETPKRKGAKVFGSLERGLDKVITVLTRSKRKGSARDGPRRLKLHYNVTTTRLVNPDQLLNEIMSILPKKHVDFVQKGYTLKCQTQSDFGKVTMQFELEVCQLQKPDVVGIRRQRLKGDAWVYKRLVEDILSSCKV
Summary of the method: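 A FITC-labelled histone H3 peptide served as substrate, with compounds serially diluted to 1% DMSO final. Reactions were stopped with three volumes of IMAP progressive binding solution. After 0.5 h at room temperature, fluorescence polarization was read.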

DU4475 cells = test: Cell-based assay: anti-proliferative activity, Cell Counting Kit-8, 72 hours (DU4475)
A549 cells = test: Cell-based assay: anti-proliferative activity, Cell Counting Kit-8, 72 hours (A549); conditions: 72 hours
Summary of the method: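 A549 cells seeded in 96-well plates and exposed to candidate inhibitors for 72 hours. Growth measured with Cell Counting Kit-8; IC50 values calculated from the dose response.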

HT-1197 cells = test: Cell-based assay: anti-proliferative activity, Cell Counting Kit-8, 72 hours (HT-1197, negative control without MELK expression); conditions: HT1197 cells (negative control), 72 hours
Summary of the method: as §1

| Compound | IC50 (T47D cells; Homo sapiens, T47D, 72 h) | IC50 (MELK) | IC50 (DU4475 cells; Homo sapiens, DU-4475, 72 h) | IC50 (A549 cells; Homo sapiens, A549, 72 h) | IC50 (HT-1197 cells; Homo sapiens, HT1197, 72 h) | other results |
| --- | --- | --- | --- | --- | --- | --- |
| COc1cc(-c2ccc3ncc(C(=O)C4CC4)c(N[C@H]4CC[C@@H](CN(C)C)CC4)c3c2)cc(Cl)c1O [Example 513] | 0.19 µM | 0.002 µM | 0.086 µM | 0.099 µM | 3.8 µM | – |
| COc1cc(-c2ccc3ncc(C(=O)C4CC4)c(C4=CCN(C(=O)CN(C)C)CC4)c3c2)cc(Cl)c1O [Example 521, 1-(4-(6-(3-chloro-4-hydroxy-5-methoxyphenyl)-3-(cyclopropanecarbonyl)quinolin-4-yl)-5,6-dihydropyridin-1(2H)-yl)-2-(dimethylamino)ethanone] | 0.22 µM | 0.0024 µM | 0.27 µM | 0.18 µM | 1.5 µM | – |
| CCCC(=O)c1cnc2ccc(-c3cc(Cl)c(O)c(OC)c3)cc2c1Nc1ccc(N2CCNCC2)nc1 [Example 617, 1-(6-(3-chloro-4-hydroxy-5-methoxyphenyl)-4-(6-(piperazin-1-yl)pyridin-3-ylamino)quinolin-3-yl)butan-1-one] | 0.33 µM | 0.0042 µM | 0.32 µM | 0.19 µM | 1.7 µM | – |
| CN1CCN(c2c(C(=O)C3CC3)cnc3ccc(-c4cc(F)c(O)c(Cl)c4)cc23)CC1 [Example 534, (6-(3-chloro-5-fluoro-4-hydroxyphenyl)-4-(4-methylpiperazin-1-yl)quinolin-3-yl)(cyclopropyl)methanone] | 1.1 µM | 0.025 µM | 0.96 µM | 1.4 µM | 2.8 µM | – |
| CN(C)CCc1ccc(Nc2c(C(=O)C3CC3)cnc3ccc(-c4cc(F)c(O)c(Cl)c4)cc23)cc1 [Example 615, (6-(3-chloro-5-fluoro-4-hydroxyphenyl)-4-(4-(2-(dimethylamino)ethyl)phenylamino)quinolin-3-yl)(cyclopropyl)methanone] | 0.17 µM | 0.0082 µM | 0.042 µM | 0.086 µM | 1.4 µM | – |
| CN(C)Cc1ccc(Nc2c(C(=O)C3CC3)cnc3cc(F)c(-c4cc(Cl)c(O)c(Cl)c4)cc23)cc1 [Example 547, cyclopropyl(6-(3,5-dichloro-4-hydroxyphenyl)-4-(4-((dimethylamino)methyl)phenylamino)-7-fluoroquinolin-3-yl)methanone] | 0.41 µM | 0.02 µM | 0.14 µM | 0.13 µM | 1.9 µM | – |
| COc1cc(-c2cc3c(Nc4ccc(N5CCNCC5)nc4)c(C(=O)C4CC4)cnc3cc2F)cc(Cl)c1O [Example 578, (6-(3-chloro-4-hydroxy-5-methoxyphenyl)-7-fluoro-4-(6-(piperazin-1-yl)pyridin-3-ylamino)quinolin-3-yl)(cyclopropyl)methanone] | 3 µM | 0.021 µM | 2.8 µM | 1.9 µM | 8 µM | – |
| CN(C)CCc1ccc(Nc2c(C(=O)C3CC3)cnc3ccc(-c4cc(Cl)c(O)c(Cl)c4)cc23)cc1 [Example 613, Cyclopropyl(6-(3,5-dichloro-4-hydroxyphenyl)-4-(4-(2-(dimethylamino)ethyl)phenylamino)quinolin-3-yl)methanone] | 0.13 µM | 0.0022 µM | 0.028 µM | 0.075 µM | 1 µM | – |
| O=C(c1cnc2ccc(-c3cc(F)c(O)c(Cl)c3)cc2c1Nc1ccc(NC2CCCNC2)nc1)C1CC1 (stereo not shown) [Example 611, (6-(3-chloro-5-fluoro-4-hydroxyphenyl)-4-(6-(piperidin-3-ylamino)pyridin-3-ylamino)quinolin-3-yl)(cyclopropyl)methanone] | 0.13 µM | 0.0023 µM | 0.39 µM | 0.57 µM | 10 µM | – |
| COc1cc(-c2ccc3ncc(C(=O)C4CC4)c(Nc4ccc(N)nc4)c3c2)cc(Cl)c1O [Example 589, (4-(6-aminopyridin-3-ylamino)-6-(3-chloro-4-hydroxy-5-methoxyphenyl)quinolin-3-yl)(cyclopropyl)methanone] | 0.61 µM | 0.011 µM | 0.21 µM | 0.18 µM | 1.4 µM | – |
| CN(C)C[C@H]1CC[C@@H](Nc2c(C(=O)C3CC3)cnc3ccc(-c4cc(Cl)c(O)c(Cl)c4)cc23)CC1 [Example 526, cyclopropyl(6-(3,5-dichloro-4-hydroxyphenyl)-4-((1s,4s)-4-((dimethylamino)methyl)cyclohexylamino)quinolin-3-yl)methanone] | 0.29 µM | 0.0021 µM | 0.15 µM | 0.25 µM | 1.2 µM | – |
| COc1cc(-c2ccc3ncc(C(=O)C4CC4)c(N4CCC(C5CCNCC5)CC4)c3c2)cc(Cl)c1O [Example 595, (4-(4,4′-bipiperidin-1-yl)-6-(3-chloro-4-hydroxy-5-methoxyphenyl)quinolin-3-yl)(cyclopropyl)methanone] | 0.41 µM | 0.0042 µM | 0.64 µM | 0.57 µM | 3.4 µM | – |
| CCCC(=O)c1cnc2ccc(-c3cc(Cl)c(O)c(OC)c3)cc2c1N[C@H]1CC[C@H](CN(C)C)CC1 [Example 607] | 0.24 µM | 0.0051 µM | 0.24 µM | 0.48 µM | 3.4 µM | – |
| O=C(c1cnc2ccc(-c3cc(F)c(O)c(Cl)c3)cc2c1N[C@H]1CC[C@H](CN2CCCC2)CC1)C1CC1 [Example 587, (6-(3-chloro-5-fluoro-4-hydroxyphenyl)-4-((trans-4-(pyrrolidin-1-ylmethyl)cyclohexyl)amino)quinolin-3-yl)(cyclopropyl)methanone] | 0.11 µM | 0.0032 µM | 0.065 µM | 0.084 µM | 0.55 µM | – |
| O=C(c1cnc2ccc(-c3cc(Cl)c(O)c(Cl)c3)cc2c1N[C@H]1C[C@H]2CC[C@@H](C1)N2)C1CC1 [Example 580, (4-((1R,3r,5S)-8-azabicyclo[3.2.1]octan-3-ylamino)-6-(3,5-dichloro-4-hydroxyphenyl)quinolin-3-yl)(cyclopropyl)methanone] | 0.25 µM | 0.0045 µM | 0.12 µM | 0.69 µM | 4.1 µM | – |
| O=C(c1cnc2ccc(-c3ccc(O)c(Cl)c3)cc2c1Nc1cnn(C2CCNCC2)c1)C1CC1 [Example 519, (6-(3-chloro-4-hydroxyphenyl)-4-((1-(piperidin-4-yl)-1H-pyrazol-4-yl)amino)quinolin-3-yl)(cyclopropyl)methanone] | 0.12 µM | 0.003 µM | 0.1 µM | 0.14 µM | 1.6 µM | – |
| COc1cc(-c2ccc3ncc(C(=O)C4CC4)c(Nc4cnn(C5CCNCC5)c4)c3c2)cc(Cl)c1O [Example 512, (6-(3-chloro-4-hydroxy-5-methoxyphenyl)-4-(1-(piperidin-4-yl)-1H-pyrazol-4-ylamino)quinolin-3-yl)(cyclopropyl)methanone] | 0.41 µM | 0.0022 µM | 0.31 µM | 0.3 µM | 2.9 µM | – |
| COc1cc(-c2cc3c(Nc4ccc(CN(C)C)cc4)c(C(=O)C4CC4)cnc3cc2F)cc(Cl)c1O [Example 540, (6-(3-chloro-4-hydroxy-5-methoxyphenyl)-4-(4-((dimethylamino)methyl)phenylamino)-7-fluoroquinolin-3-yl)(cyclopropyl)methanone] | 0.89 µM | 0.064 µM | 0.35 µM | 0.25 µM | 3.7 µM | – |
| NC1CCN(c2ncc(Nc3c(C(=O)C4CC4)cnc4ccc(-c5cc(F)c(O)c(Cl)c5)cc34)cn2)C1 (stereo not shown) [Example 573, (4-(2-(3-aminopyrrolidin-1-yl)pyrimidin-5-ylamino)-6-(3-chloro-5-fluoro-4-hydroxyphenyl)quinolin-3-yl)(cyclopropyl)methanone hydrochloride] | – | – | – | – | – | IC50 (T47D cells; 72 hours, hydrochloride): 0.0072 µM; IC50 (MELK; hydrochloride): 0.004 µM; IC50 (DU4475 cells; hydrochloride): 0.013 µM; IC50 (A549 cells; hydrochloride): 0.032 µM; IC50 (HT-1197 cells; hydrochloride): 0.57 µM |
| CN[C@H]1CC[C@H](Nc2c(C(C)=O)cnc3ccc(-c4cc(Cl)c(O)c(OC)c4)cc23)CC1 [Example 542] | 0.078 µM | 0.0043 µM | 0.069 µM | 0.1 µM | 1.7 µM | – |
| COc1cc(-c2ccc3ncc(C(=O)C(C)C)c(N[C@H]4CC[C@H](CN(C)C)CC4)c3c2)cc(Cl)c1O [Example 606] | 0.65 µM | 0.0063 µM | 0.34 µM | 0.65 µM | 1.1 µM | – |
| NC1CCN(c2ncc(Nc3c(C(=O)C4CC4)cnc4ccc(-c5cc(Cl)c(O)c(Cl)c5)cc34)cn2)C1 (stereo not shown) [Example 574, (4-(2-(3-aminopyrrolidin-1-yl)pyrimidin-5-ylamino)-6-(3,5-dichloro-4-hydroxyphenyl)quinolin-3-yl)(cyclopropyl)methanone] | 0.031 µM | 0.0018 µM | 0.021 µM | 0.087 µM | 1.4 µM | – |
| CCCC(=O)c1cnc2ccc(-c3cc(Cl)c(O)c(Cl)c3)cc2c1Nc1ccc(CN(C)C)cc1 [Example 531, 1-(6-(3,5-dichloro-4-hydroxyphenyl)-4-((4-((dimethylamino)methyl)phenyl)amino)quinolin-3-yl)butan-1-one dihydrochloride] | – | – | – | – | – | IC50 (T47D cells; 72 hours, dihydrochloride): 0.11 µM; IC50 (MELK; dihydrochloride): 0.0052 µM; IC50 (DU4475 cells; dihydrochloride): 0.072 µM; IC50 (A549 cells; dihydrochloride): 0.18 µM; IC50 (HT-1197 cells; dihydrochloride): 1.3 µM |
